Where two headings read alike, the source gives them in different places.
Experiments:
Assay type in all cases: cell-based
[1] = target: proteins of HEK293T cells transiently overexpressing caspase-6 (Homo sapiens, UniProt Q9Y265); details: Probe; protein RUVBL1 Q9Y265
[2] = target: proteins of HEK293T cells transiently overexpressing caspase-6 (Homo sapiens, UniProt O00571); details: exp_ref Probe; protein DDX3X (O00571); analysis C6
[3] = target: proteins of HEK293T cells transiently overexpressing caspase-6 (Homo sapiens, UniProt P38919); details: exp_ref Probe; protein EIF4A3 (P38919); analysis C6
[4] = target: proteins of HEK293T cells transiently overexpressing caspase-6 (Homo sapiens, UniProt Q07812); details: Probe; protein BAX Q07812
[5] = target: T1, proteins of HEK293T cells transiently overexpressing caspase-6 (Homo sapiens, UniProt P45880); details: protein VDAC2 (P45880)
T1 sequence (P45880 1-294): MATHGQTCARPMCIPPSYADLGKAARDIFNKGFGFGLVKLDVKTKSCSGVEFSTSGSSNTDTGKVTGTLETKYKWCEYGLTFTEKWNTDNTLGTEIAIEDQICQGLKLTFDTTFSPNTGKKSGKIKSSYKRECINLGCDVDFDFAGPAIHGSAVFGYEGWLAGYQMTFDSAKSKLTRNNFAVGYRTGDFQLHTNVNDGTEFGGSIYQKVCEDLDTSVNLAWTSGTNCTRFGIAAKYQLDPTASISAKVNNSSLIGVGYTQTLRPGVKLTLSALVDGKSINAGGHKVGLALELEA

[6] = target: proteins of HEK293T cells transiently overexpressing caspase-6 (Homo sapiens, UniProt P62633); details: exp_ref Probe; protein CNBP (P62633); analysis C6
[7] = target: proteins of HEK293T cells transiently overexpressing caspase-6 (Homo sapiens, UniProt Q14157); details: Probe; protein UBAP2L Q14157
[8] = target: proteins of HEK293T cells transiently overexpressing caspase-6 (Homo sapiens, UniProt Q99714); details: exp_ref Probe; protein HSD17B10 (Q99714); analysis C6
[9] = target: proteins of HEK293T cells transiently overexpressing caspase-6 (Homo sapiens, UniProt Q15366); details: exp_ref Probe; protein PCBP2 (Q15366); analysis C6
[10] = target: proteins of HEK293T cells transiently overexpressing caspase-6 (Homo sapiens, UniProt P61247); details: protein RPS3A (P61247)
[11] = target: T2, proteins of HEK293T cells transiently overexpressing caspase-6 (Homo sapiens, UniProt O43169); details: protein CYB5B (O43169)
T2 sequence (O43169 16-150): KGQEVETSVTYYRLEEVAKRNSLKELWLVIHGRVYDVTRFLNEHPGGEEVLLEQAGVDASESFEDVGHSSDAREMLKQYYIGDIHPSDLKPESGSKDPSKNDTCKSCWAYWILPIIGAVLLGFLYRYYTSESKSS

[12] = target: proteins of HEK293T cells transiently overexpressing caspase-6 (Homo sapiens, UniProt P35998); details: exp_ref Probe; protein PSMC2 (P35998); analysis C6
[13] = target: T3, proteins of HEK293T cells transiently overexpressing caspase-6 (Homo sapiens, UniProt Q15942)
T3 sequence (Q15942 1-572): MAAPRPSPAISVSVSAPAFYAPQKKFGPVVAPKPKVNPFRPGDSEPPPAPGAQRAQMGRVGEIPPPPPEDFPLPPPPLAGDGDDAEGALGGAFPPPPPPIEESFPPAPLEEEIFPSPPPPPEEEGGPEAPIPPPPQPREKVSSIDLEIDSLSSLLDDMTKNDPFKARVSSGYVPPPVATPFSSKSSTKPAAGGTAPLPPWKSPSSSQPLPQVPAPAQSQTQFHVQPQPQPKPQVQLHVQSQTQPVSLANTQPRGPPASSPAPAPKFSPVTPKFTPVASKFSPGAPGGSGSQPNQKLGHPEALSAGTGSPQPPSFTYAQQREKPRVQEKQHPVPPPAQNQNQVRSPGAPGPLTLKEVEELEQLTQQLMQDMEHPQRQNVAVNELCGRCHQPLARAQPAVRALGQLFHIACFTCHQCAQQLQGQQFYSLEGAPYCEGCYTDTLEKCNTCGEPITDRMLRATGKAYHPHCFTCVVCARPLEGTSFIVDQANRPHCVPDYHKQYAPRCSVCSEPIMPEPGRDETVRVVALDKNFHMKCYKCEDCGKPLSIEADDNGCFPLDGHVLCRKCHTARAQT

[14] = target: proteins of HEK293T cells transiently overexpressing caspase-6 (Homo sapiens, UniProt P62917); details: Probe; protein RPL8 P62917
[15] = target: proteins of HEK293T cells transiently overexpressing caspase-6 (Homo sapiens, UniProt P25788); details: Probe; protein PSMA3 P25788
[16] = target: proteins of HEK293T cells transiently overexpressing caspase-6 (Homo sapiens, UniProt Q16658); details: exp_ref Probe; protein FSCN1 (Q16658); analysis C6
[17] = target: proteins of HEK293T cells transiently overexpressing caspase-6 (Homo sapiens, UniProt P07437); details: protein TUBB (P07437)
[18] = target: proteins of HEK293T cells transiently overexpressing caspase-6 (Homo sapiens, UniProt P49327); details: exp_ref Probe; protein FASN (P49327); analysis C6

Chain of proteins of HEK293T cells transiently overexpressing caspase-6 (Homo sapiens, UniProt P07437) (P07437 whole entry): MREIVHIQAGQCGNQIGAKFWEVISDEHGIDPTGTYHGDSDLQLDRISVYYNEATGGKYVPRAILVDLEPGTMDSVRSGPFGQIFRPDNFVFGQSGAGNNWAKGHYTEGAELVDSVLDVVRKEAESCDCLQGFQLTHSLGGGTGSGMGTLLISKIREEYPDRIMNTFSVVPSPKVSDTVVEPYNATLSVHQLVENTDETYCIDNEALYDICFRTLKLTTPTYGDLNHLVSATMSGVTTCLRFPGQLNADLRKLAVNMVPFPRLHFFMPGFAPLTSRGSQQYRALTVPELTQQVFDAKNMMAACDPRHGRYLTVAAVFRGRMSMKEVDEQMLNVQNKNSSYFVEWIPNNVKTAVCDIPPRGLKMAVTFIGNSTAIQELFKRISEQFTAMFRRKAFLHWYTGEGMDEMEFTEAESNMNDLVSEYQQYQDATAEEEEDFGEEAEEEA
Chain of proteins of HEK293T cells transiently overexpressing caspase-6 (Homo sapiens, UniProt Q14157) (Q14157 whole entry): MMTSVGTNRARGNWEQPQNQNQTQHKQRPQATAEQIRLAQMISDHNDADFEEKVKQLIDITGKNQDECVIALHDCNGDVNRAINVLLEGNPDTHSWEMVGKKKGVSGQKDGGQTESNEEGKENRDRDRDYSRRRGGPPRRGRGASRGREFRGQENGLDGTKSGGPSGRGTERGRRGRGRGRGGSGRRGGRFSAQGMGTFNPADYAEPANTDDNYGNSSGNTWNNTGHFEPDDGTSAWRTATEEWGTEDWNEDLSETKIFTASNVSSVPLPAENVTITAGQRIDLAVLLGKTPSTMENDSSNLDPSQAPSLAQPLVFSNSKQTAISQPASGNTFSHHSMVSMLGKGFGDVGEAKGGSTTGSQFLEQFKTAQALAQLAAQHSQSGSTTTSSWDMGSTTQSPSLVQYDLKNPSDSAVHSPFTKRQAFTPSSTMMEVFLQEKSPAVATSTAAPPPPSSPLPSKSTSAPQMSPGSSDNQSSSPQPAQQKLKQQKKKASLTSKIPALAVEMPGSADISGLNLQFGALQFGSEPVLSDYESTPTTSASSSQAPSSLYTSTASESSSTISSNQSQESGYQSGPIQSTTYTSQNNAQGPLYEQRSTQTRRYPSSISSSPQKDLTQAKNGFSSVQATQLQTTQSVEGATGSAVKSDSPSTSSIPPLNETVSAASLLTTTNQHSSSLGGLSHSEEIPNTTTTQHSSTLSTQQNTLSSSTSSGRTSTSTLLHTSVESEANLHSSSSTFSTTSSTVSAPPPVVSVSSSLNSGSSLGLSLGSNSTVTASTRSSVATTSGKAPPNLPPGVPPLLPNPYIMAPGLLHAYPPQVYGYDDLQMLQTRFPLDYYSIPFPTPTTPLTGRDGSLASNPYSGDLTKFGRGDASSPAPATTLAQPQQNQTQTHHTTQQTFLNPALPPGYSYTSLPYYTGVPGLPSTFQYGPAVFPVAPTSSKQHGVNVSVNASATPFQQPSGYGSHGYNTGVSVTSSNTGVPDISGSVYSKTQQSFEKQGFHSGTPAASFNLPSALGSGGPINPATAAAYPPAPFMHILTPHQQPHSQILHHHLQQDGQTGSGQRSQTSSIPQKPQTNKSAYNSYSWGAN
Chain of proteins of HEK293T cells transiently overexpressing caspase-6 (Homo sapiens, UniProt P62633) (P62633 whole entry): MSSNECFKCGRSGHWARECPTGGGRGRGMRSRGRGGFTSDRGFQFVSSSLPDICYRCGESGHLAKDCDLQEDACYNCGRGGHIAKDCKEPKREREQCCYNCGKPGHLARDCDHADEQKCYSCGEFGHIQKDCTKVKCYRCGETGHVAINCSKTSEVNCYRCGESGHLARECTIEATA
Chain of proteins of HEK293T cells transiently overexpressing caspase-6 (Homo sapiens, UniProt P35998) (P35998 whole entry): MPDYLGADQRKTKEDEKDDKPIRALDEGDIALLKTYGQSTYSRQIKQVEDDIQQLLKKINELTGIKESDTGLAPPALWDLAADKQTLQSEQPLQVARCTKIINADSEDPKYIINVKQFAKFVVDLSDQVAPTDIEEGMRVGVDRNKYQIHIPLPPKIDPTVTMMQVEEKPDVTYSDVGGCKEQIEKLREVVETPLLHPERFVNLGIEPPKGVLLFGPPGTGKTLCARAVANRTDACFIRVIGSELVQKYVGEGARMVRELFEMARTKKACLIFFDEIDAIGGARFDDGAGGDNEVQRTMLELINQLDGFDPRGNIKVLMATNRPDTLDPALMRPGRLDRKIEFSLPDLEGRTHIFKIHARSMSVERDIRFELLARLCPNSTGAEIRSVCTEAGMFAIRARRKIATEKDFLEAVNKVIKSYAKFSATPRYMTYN
Chain of proteins of HEK293T cells transiently overexpressing caspase-6 (Homo sapiens, UniProt Q99714) (Q99714 whole entry): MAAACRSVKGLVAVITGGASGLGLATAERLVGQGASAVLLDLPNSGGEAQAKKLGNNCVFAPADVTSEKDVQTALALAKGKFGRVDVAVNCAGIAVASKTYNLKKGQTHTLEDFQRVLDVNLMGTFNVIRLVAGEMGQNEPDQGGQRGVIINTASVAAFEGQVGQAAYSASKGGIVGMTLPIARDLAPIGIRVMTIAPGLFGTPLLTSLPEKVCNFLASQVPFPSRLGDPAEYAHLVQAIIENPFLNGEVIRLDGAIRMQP
Chain of proteins of HEK293T cells transiently overexpressing caspase-6 (Homo sapiens, UniProt P25788) (P25788 whole entry): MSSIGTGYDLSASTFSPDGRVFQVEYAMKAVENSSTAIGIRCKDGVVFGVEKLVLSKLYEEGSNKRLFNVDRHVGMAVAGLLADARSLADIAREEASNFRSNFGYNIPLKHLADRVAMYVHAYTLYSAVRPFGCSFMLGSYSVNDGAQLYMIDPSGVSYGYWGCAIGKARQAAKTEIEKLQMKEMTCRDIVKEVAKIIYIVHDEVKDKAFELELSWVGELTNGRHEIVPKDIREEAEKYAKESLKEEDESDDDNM
Chain of proteins of HEK293T cells transiently overexpressing caspase-6 (Homo sapiens, UniProt Q15366) (Q15366 whole entry): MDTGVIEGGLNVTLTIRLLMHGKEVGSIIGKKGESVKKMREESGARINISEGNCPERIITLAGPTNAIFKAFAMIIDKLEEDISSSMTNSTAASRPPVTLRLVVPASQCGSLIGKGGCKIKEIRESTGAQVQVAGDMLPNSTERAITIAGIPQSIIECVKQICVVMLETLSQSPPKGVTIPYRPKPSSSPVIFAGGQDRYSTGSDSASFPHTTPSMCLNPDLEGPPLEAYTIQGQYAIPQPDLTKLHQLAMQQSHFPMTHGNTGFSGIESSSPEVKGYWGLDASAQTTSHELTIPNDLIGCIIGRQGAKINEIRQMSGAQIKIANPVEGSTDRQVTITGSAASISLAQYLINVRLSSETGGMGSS
Chain of proteins of HEK293T cells transiently overexpressing caspase-6 (Homo sapiens, UniProt Q9Y265) (Q9Y265 whole entry): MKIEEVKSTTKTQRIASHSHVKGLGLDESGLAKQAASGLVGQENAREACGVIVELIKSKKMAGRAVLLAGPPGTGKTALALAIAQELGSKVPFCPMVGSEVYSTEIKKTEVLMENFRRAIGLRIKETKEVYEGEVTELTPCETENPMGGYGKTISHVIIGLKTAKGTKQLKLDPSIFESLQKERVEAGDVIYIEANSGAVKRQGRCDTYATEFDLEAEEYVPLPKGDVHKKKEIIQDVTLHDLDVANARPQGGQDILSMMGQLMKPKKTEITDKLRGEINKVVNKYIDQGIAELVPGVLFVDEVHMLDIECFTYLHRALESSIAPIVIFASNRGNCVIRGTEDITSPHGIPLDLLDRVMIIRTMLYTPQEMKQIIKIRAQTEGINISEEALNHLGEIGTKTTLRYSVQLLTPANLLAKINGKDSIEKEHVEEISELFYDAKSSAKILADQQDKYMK
Chain of proteins of HEK293T cells transiently overexpressing caspase-6 (Homo sapiens, UniProt O00571) (O00571 whole entry): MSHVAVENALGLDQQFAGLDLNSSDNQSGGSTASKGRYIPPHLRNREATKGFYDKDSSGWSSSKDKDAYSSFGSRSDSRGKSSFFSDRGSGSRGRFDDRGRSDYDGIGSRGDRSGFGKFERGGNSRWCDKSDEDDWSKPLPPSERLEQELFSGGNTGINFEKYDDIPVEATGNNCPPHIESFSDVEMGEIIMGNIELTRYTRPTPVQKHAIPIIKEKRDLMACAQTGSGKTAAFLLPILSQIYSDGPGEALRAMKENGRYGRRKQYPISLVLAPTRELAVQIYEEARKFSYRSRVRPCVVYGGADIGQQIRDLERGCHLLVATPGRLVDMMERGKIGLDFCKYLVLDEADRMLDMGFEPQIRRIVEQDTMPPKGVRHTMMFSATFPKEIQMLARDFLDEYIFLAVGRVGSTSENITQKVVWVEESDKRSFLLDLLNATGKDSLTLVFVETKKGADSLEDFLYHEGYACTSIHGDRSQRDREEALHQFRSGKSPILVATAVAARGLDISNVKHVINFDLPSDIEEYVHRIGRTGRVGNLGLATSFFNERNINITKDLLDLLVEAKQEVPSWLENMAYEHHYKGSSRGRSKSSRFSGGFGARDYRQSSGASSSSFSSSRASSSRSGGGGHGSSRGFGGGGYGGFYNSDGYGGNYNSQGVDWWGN
Chain of proteins of HEK293T cells transiently overexpressing caspase-6 (Homo sapiens, UniProt P38919) (P38919 whole entry): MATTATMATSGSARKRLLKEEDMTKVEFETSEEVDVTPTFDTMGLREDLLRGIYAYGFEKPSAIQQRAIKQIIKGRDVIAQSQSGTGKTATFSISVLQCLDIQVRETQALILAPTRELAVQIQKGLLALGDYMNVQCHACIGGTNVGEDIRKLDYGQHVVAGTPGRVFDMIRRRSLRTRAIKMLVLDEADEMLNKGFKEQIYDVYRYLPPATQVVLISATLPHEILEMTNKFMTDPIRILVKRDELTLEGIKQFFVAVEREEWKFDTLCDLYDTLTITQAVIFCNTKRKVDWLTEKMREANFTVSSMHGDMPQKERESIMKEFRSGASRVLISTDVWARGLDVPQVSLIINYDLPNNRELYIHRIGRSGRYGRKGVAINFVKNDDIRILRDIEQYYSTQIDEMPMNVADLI
Chain of proteins of HEK293T cells transiently overexpressing caspase-6 (Homo sapiens, UniProt Q07812) (Q07812 whole entry): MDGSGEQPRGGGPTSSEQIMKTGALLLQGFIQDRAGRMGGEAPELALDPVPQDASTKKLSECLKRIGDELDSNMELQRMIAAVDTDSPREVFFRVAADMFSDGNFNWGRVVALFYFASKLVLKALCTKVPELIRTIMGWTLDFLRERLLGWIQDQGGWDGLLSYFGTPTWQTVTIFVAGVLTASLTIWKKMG

Q: Which enrich.exp.med [1] does the source give for `C#CCOc1ccc([C@@H]2C[C@@H](C(=O)Nc3ccc(OC(F)(F)F)cc3)CN(S(=O)(=O)C=C)C2)cc1` (relative stereo) [13-t] here?
A: -0.45

Q: What about the enrich.exp.med [2] of the same molecule?
A: 0.1246

Q: What about the enrich.exp.med [3] of the same molecule?
A: 0.7561

Q: And the enrich.exp.med [4]?
A: -2.1832

Q: What about the enrich.exp.med.lin [5] of the same molecule?
A: 4.704

Q: What about the enrich.exp.med.log2 [5] of the same molecule?
A: 2.234

Q: And the enrich.exp.med.lin ([5]; Expt Probe, analysis C6)?
A: 4.704

Q: What about the enrich.exp.med.log2 ([5]; Expt Probe, analysis C6) of the same molecule?
A: 2.234

Q: What about the enrich.exp.med ([5]; exp_ref Probe, analysis C6) of the same molecule?
A: 2.234

Q: And the enrich.exp.med [6]?
A: -0.4177

Q: And the enrich.exp.med [7]?
A: -0.84

Q: And the enrich.exp.med [8]?
A: 0.1684

Q: And the enrich.exp.med [9]?
A: 0.5184

Q: And the enrich.exp.med ([10]; exp_ref Probe, analysis C6)?
A: 1.085

Q: And the enrich.exp.med.lin [10]?
A: 2.121

Q: And the enrich.exp.med.log2 [10]?
A: 1.085

Q: And the enrich.exp.med.lin [11]?
A: 2.907

Q: What about the enrich.exp.med.log2 [11] of the same molecule?
A: 1.54

Q: What about the enrich.exp.med ([11]; exp_ref Probe, analysis C6) of the same molecule?
A: 1.54

Q: And the enrich.exp.med [12]?
A: 0.5412

Q: What about the enrich.exp.med ([13]; Probe, protein ZYX Q15942) of the same molecule?
A: -1.696

Q: What about the enrich.exp.med.lin ([13]; protein ZYX (Q15942)) of the same molecule?
A: 0.3087

Q: And the enrich.exp.med.log2 ([13]; protein ZYX (Q15942))?
A: -1.696

Q: And the enrich.exp.med [14]?
A: -0.8445

Q: And the enrich.exp.med [15]?
A: -2.444

Q: What about the enrich.exp.med [16] of the same molecule?
A: 0.2175

Q: What about the enrich.exp.med ([17]; exp_ref Probe, analysis C6) of the same molecule?
A: 1.184

Q: What about the enrich.exp.med.lin [17] of the same molecule?
A: 2.273

Q: And the enrich.exp.med.log2 [17]?
A: 1.184

Q: What about the enrich.exp.med [18] of the same molecule?
A: -0.2577
